Laboratory results as given in paper PMC10187112 (Journal of Enzyme Inhibition and Medicinal Chemistry, 2023).
Read-outs that look alike come from different tables or passages of the source.

Experiments:
[1] = target: T1, human serotonin 5-HT1A receptor (Homo sapiens, UniProt P08908); assay: Competition radioligand binding, [3H]-8-OH-DPAT, HEK293 membranes; conditions: for Ki: human cloned 5-HT1A, read-out: Ki 5-HT1A (converted); for inhibition at 10 µM: read-out: % inh. at 10 μM 5-HT1A
T1 construct: expressed in transfected cells; host or cells: HEK293
T1 sequence (P08908 1-422): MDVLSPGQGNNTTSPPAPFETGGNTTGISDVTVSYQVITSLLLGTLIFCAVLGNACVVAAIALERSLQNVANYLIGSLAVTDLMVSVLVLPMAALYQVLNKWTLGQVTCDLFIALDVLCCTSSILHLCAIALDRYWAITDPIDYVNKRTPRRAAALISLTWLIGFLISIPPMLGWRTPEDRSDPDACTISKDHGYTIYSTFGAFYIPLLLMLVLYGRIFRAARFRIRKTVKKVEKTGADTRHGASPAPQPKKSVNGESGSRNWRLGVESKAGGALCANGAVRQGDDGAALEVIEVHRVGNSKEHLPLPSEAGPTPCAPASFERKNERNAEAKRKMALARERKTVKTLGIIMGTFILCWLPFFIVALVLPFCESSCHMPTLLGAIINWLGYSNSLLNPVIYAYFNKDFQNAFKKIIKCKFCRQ
Description: (§1) Experiments were carried out in membranes from cell lines stably expressing the human cloned receptors.
(§2) Competition radioligand binding assays were performed on membranes isolated from cell lines stable expressing the cloned human receptors, which were either in-house or commercially available. […] Assays (250 μL assay final volume) were carried out in 96-well polypropylene plates in duplicate. In short, suspension of appropriate membrane protein was incubated in assay buffer with addition of the corresponding radioligand, in the presence or absence of tested compound or reference compound. […] After the incubation, the content of the test plates was transferred to 96-well plates with glass fibre filter GF/B or GF/C, previously pre-treated with polyethyleneimine (PEI), and rapidly filtered with the use of vacuum, followed by rapid washing with cold (4 °C) wash buffer. After that the filter plates were dried at 60 °C for 1 h. Then, 30 μL of liquid scintillation cocktail (UniverSol-ES, MP Biomedicals, Solon, OH) was added to each well of the filter plates and the radioactivity was measured in a MicroBeta2 microplate scintillation counter (PerkinElmer, Madrid, Spain).
(§3) Competition binding curves were fitted to a one-site competition binding model (Fit Ki) with the use of Prism 7 software (GraphPad, San Diego, CA). logKi (log of the equilibrium dissociation constant (Ki)) values were obtained after constraining the concentration of radioligand employed in the assay and its dissociation constant (KD) as determined in saturation radioligand binding assays.

[2] = target: T2, human serotonin 5-HT2A receptor (Homo sapiens, UniProt P28223); assay: Competition radioligand binding, [3H]-Ketanserin, CHO-K1 membranes; conditions: for Ki: human cloned 5-HT2A; for pKi 5-HT2A/pKi D2: ratio of pKi values; for inhibition at 10 µM: read-out: % inh. at 10 μM 5-HT2A
T2 construct: expressed in transfected cells; host or cells: CHO-K1
T2 sequence (P28223 whole entry): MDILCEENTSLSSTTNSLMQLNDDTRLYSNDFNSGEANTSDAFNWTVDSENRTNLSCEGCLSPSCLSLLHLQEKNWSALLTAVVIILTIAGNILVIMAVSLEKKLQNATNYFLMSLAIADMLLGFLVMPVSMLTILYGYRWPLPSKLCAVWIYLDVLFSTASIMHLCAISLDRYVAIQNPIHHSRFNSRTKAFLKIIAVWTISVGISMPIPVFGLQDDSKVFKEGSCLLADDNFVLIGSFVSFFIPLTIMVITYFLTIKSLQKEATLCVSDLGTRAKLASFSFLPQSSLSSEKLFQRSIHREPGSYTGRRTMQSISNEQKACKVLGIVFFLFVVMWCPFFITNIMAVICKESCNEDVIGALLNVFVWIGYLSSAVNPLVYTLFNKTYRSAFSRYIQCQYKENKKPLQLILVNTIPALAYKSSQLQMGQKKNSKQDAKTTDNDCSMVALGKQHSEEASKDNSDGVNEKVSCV
Description: as §1, §2, §3

[3] = target: T3, human dopamine D2 (D2S) receptor (Homo sapiens, UniProt P14416); assay: Competition radioligand binding, [3H]-spiperone, CHO-K1 membranes; conditions: for Ki: human cloned D2S; for inhibition at 10 µM: read-out: % inh. at 10 μM D2
T3 construct: expressed in transfected cells; host or cells: CHO-K1
T3 sequence (P14416 1-414 isoform P14416-2): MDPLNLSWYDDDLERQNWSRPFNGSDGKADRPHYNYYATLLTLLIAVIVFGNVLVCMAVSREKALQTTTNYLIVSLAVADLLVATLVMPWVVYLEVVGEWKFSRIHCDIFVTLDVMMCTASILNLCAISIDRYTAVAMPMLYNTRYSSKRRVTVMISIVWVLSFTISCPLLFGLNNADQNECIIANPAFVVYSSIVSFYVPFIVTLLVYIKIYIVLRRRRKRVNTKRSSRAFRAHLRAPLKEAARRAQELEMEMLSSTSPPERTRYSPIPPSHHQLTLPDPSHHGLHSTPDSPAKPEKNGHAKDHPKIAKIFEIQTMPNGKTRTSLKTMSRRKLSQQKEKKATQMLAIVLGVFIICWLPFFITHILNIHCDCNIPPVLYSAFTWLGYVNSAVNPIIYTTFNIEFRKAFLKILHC
Description: as §1, §2, §3

[4] = mean ± SEM, read-out: pKi D2 (converted)

Row | Compound | Ki [1] | Ki [2] | pKi 5-HT2A/pKi D2 [2] | Ki ([3]; read-out: Ki D2 (converted)) | inhibition at 10 µM [1] | inhibition at 10 µM [3] | inhibition at 10 µM [2] | Ki [3, 4]
1 | COc1ccccc1N1CCN(CCCNC(=O)c2n[nH]c3ccccc23)CC1 [Compound 2, N-(3-(4-(2-methoxyphenyl)piperazin-1-yl)propyl)-1H-indazole-3-carboxamide] | 22.9 nM | 372 nM | 0.84 | 22.7 nM |  |  |  | 
2 | COc1cccc(N2CCN(CCCNC(=O)c3n[nH]c4ccccc34)CC2)c1 [Compound 3, N-(3-(4-(3-methoxyphenyl)piperazin-1-yl)propyl)-1H-indazole-3-carboxamide] | 110 nM | 184 nM | 1.04 | 315 nM |  |  |  | 
3 | COc1ccc(N2CCN(CCCNC(=O)c3n[nH]c4ccccc34)CC2)cc1 [Compound 4, N-(3-(4-(4-methoxyphenyl)piperazin-1-yl)propyl)-1H-indazole-3-carboxamide] |  | 491 nM |  |  | 58.4 ± 1.8% | 46 ± 6% |  | 
4 | O=C(NCCCN1CCN(c2ccccn2)CC1)c1n[nH]c2ccccc12 [Compound 5, N-(3-(4-(pyridin-2-yl)piperazin-1-yl)propyl)-1H-indazole-3-carboxamide] | 113 nM | 132 nM | 1.06 | 339 nM |  |  |  | 
5 | O=C(NCCCN1CCN(c2cccnc2)CC1)c1n[nH]c2ccccc12 [Compound 6, N-(3-(4-(pyridin-3-yl)piperazin-1-yl)propyl)-1H-indazole-3-carboxamide] | 1380 nM | 2650 nM | 0.93 | 1010 nM |  |  |  | 
6 | O=C(NCCCN1CCN(c2ccncc2)CC1)c1n[nH]c2ccccc12 [Compound 7, N-(3-(4-(pyridin-4-yl)piperazin-1-yl)propyl)-1H-indazole-3-carboxamide] |  |  |  |  | 27.9 ± 2.7% | 0% | 0% | 
7 | O=C(NCCCN1CCN(c2ncccn2)CC1)c1n[nH]c2ccccc12 [Compound 8, N-(3-(4-(pyrimidin-2-yl)piperazin-1-yl)propyl)-1H-indazole-3-carboxamide] | 238 nM | 807 nM | 0.96 | 480 nM |  |  |  | 
8 | O=C(NCCCN1CCN(c2ccccc2F)CC1)c1n[nH]c2ccccc12 [Compound 9, N-(3-(4-(2-fluorophenyl)piperazin-1-yl)propyl)-1H-indazole-3-carboxamide] | 135 nM | 117 nM | 0.94 | 42.2 nM |  |  |  | 41.7 nM
9 | O=C(NCCCN1CCN(c2ccccc2C(F)(F)F)CC1)c1n[nH]c2ccccc12 [Compound 12, N-(3-(4-(2-(trifluoromethyl)phenyl)piperazin-1-yl)propyl)-1H-indazole-3-carboxamide] | 423 nM | 832 nM | 0.83 | 45.2 nM |  |  |  | 44.7 nM
10 | O=C(NCCCN1CCN(c2ccccc2Cl)CC1)c1n[nH]c2ccccc12 [Compound 13, N-(3-(4-(2-chlorophenyl)piperazin-1-yl)propyl)-1H-indazole-3-carboxamide] | 107 nM | 134 nM | 0.96 | 69.7 nM |  |  |  | 
11 | CSc1ccccc1N1CCN(CCCNC(=O)c2n[nH]c3ccccc23)CC1 [Compound 14, N-(3-(4-(2-(methylthio)phenyl)piperazin-1-yl)propyl)-1H-indazole-3-carboxamide] | 12.4 nM | 217 nM | 0.82 | 7.05 nM |  |  |  | 
12 | CCOc1ccccc1N1CCN(CCCNC(=O)c2n[nH]c3ccccc23)CC1 [Compound 15, N-(3-(4-(2-ethoxyphenyl)piperazin-1-yl)propyl)-1H-indazole-3-carboxamide] | 46.9 nM | 280 nM | 0.85 | 19.8 nM |  |  |  | 
13 | O=C(NCCCN1CCN(C2CCCCC2)CC1)c1n[nH]c2ccccc12 [Compound 16, N-(3-(4-cyclohexylpiperazin-1-yl)propyl)-1H-indazole-3-carboxamide] |  |  |  |  | 56.7 ± 1.6% | 19 ± 6.8% | 25.6 ± 9% | 
